According to ChEMBL document CHEMBL6083264, “Superacid-Synthesized Fluorinated Diamines Act as Selective hCA IV Inhibitors” (J Med Chem, 2024):

Tests used:
Carbonic anhydrase 1 = Carbonic anhydrase 1 (Homo sapiens, UniProt P00915)
Description: Inhibition of human CA-I-catalysed CO2 hydration activity incubated for 15 min by Phenol red dye based assay

Carbonic anhydrase 4 [1] = molecular target: T1, Carbonic anhydrase 4 (Homo sapiens, UniProt P22748)
Description: Inhibition of human CA-IV-catalysed CO2 hydration activity incubated for 15 min by Phenol red dye based assay

Carbonic anhydrase 12 = Carbonic anhydrase 12 (Homo sapiens, UniProt O43570)
Description: Inhibition of human CA-XII-catalysed CO2 hydration activity incubated for 15 min by Phenol red dye based assay

Carbonic anhydrase 9 = Carbonic anhydrase 9 (Homo sapiens, UniProt Q16790)
Description: Inhibition of human CA-IX-catalysed CO2 hydration activity incubated for 15 min by Phenol red dye based assay

Carbonic anhydrase 2 = Carbonic anhydrase 2 (Homo sapiens, UniProt P00918)
Description: Inhibition of human CA-II-catalysed CO2 hydration activity incubated for 15 min by Phenol red dye based assay

Carbonic anhydrase 4 [2] = molecular target: T1, Carbonic anhydrase 4; remark: listed apart in the source
Description: Inhibition of human CA-IV

Carbonic anhydrase 1, sequence (P00915 whole entry): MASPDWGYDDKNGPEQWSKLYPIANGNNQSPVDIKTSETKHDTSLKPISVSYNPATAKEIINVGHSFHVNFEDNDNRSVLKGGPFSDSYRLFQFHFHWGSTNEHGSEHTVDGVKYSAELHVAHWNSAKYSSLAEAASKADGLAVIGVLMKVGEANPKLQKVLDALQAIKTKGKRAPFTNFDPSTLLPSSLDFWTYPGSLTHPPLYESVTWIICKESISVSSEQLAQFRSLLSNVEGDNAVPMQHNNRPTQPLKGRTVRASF
Carbonic anhydrase 12, sequence (O43570 whole entry): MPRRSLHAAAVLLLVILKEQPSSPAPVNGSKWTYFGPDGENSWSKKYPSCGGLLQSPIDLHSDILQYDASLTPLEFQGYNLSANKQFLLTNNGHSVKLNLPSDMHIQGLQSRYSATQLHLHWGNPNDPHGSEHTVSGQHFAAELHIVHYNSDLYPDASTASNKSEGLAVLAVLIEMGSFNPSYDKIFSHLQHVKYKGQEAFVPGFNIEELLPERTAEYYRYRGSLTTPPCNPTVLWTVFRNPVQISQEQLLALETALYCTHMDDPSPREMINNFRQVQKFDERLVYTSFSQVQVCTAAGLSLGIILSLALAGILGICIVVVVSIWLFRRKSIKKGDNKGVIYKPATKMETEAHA
T1 sequence (P22748 whole entry): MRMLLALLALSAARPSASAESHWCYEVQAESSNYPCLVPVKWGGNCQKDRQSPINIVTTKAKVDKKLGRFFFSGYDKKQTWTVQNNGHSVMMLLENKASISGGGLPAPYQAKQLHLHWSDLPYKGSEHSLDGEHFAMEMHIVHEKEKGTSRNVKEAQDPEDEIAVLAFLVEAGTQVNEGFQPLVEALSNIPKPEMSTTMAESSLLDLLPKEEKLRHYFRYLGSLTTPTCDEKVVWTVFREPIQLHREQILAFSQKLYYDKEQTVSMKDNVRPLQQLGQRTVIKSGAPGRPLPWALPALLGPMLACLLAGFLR

Row | Structure (SMILES) | Ki (Carbonic anhydrase 1) | Ki (Carbonic anhydrase 4 [1]) | Ki (Carbonic anhydrase 12) | Ki (Carbonic anhydrase 9) | Ki (Carbonic anhydrase 2) | IC50 (Carbonic anhydrase 4 [2])
1 | CCCNCCCCN | > 100 µM | 0.093 µM | 28.6 µM | 3.08 µM | > 100 µM | 
2 | CCCNCCCN | > 100 µM | 0.095 µM | 52.7 µM | 2.95 µM | > 100 µM | 
3 | CC(F)(F)CNCCCCN1C(=O)c2ccccc2C1=O | > 100 µM | > 100 µM |  |  |  | 
4 | CC(F)(F)CNCCCN1C(=O)c2ccccc2C1=O | > 100 µM |  | > 100 µM | > 100 µM |  | 
5 | CN(CC(F)CN)S(=O)(=O)c1ccc([N+](=O)[O-])cc1 (centres undefined) | > 100 µM | 20.1 µM | 3.65 µM | 89 µM | 0.79 µM | 
6 | CC(F)CNCCCCN1C(=O)c2ccccc2C1=O (centres undefined) | 0.25 µM | 0.074 µM | 0.006 µM | 0.026 µM | 0.012 µM | 
7 | CC(F)CNCCCN1C(=O)c2ccccc2C1=O (centres undefined) | > 100 µM | 0.13 µM | > 100 µM | > 100 µM | 4.26 µM | 
8 | CC(F)(F)CNCCCN | > 100 µM |  | > 100 µM |  |  | 
9 | CC(F)CN(CCCN)S(=O)(=O)c1ccc([N+](=O)[O-])cc1 (centres undefined) | > 100 µM | 51.2 µM | 5.2 µM | > 100 µM | 0.72 µM | 
10 | O=[N+]([O-])c1ccc(S(=O)(=O)NCC(F)CCl)cc1 (centres undefined) | 3.02 µM | > 100 µM | 0.68 µM | 20 µM | 0.026 µM | 
11 | CC(F)(F)CN(CCCCN1C(=O)c2ccccc2C1=O)S(=O)(=O)c1ccc([N+](=O)[O-])cc1 | > 100 µM | > 100 µM |  | > 100 µM | > 100 µM | 
12 | CC(=O)N1N=C(c2ccc(S(N)(=O)=O)cc2)CC1c1c(Cl)cccc1Cl (centres undefined) |  | 0.0177 µM |  |  |  | 
13 | CC(F)(F)CN(CCCN1C(=O)c2ccccc2C1=O)S(=O)(=O)c1ccc([N+](=O)[O-])cc1 | > 100 µM | > 100 µM |  | > 100 µM |  | 
14 | CC(F)CNCCCN (centres undefined) | > 100 µM | 0.034 µM | > 100 µM | 1.44 µM | 36.9 µM | 
15 | CC(F)CNS(=O)(=O)c1ccc([N+](=O)[O-])cc1 (centres undefined) | 4.5 µM | 0.071 µM | 4.2 µM | 2.2 µM | 2.4 µM | 0.071 µM
16 | CC(F)(F)CNCCCCN | > 100 µM |  | > 100 µM |  | > 100 µM | 
17 | CC(F)CNCCCCN (centres undefined) | > 100 µM | 0.028 µM | > 100 µM | 0.38 µM | 63.7 µM | 
18 | O=C1c2ccccc2C(=O)N1CC(F)CNS(=O)(=O)c1ccc([N+](=O)[O-])cc1 (centres undefined) | > 100 µM | > 100 µM | > 100 µM | > 100 µM | 0.076 µM | 
19 | CN(CC(F)CCl)S(=O)(=O)c1ccc([N+](=O)[O-])cc1 (centres undefined) | > 100 µM | > 100 µM | > 100 µM | > 100 µM | > 100 µM | 
20 | CC(F)CN(CCCN1C(=O)c2ccccc2C1=O)S(=O)(=O)c1ccc([N+](=O)[O-])cc1 (centres undefined) | > 100 µM | > 100 µM | 7 µM | > 100 µM | 78.4 µM | 
21 | CC(F)CN(CCCCN1C(=O)c2ccccc2C1=O)S(=O)(=O)c1ccc([N+](=O)[O-])cc1 (centres undefined) | > 100 µM | > 100 µM | 0.64 µM | > 100 µM | 34 µM | 
22 | CN(CC(F)CN1C(=O)c2ccccc2C1=O)S(=O)(=O)c1ccc([N+](=O)[O-])cc1 (centres undefined) | > 100 µM | > 100 µM | > 100 µM | > 100 µM | > 100 µM | 
